From patent US20130190324A1, “TOPICAL OCULAR DRUG DELIVERY” (The Regents of the University of Colorado, a body corporate, priority 2011, published 2013) come the findings set out here.

In brackets after ≈: the same amount, converted by molar mass. Entries after “also recorded” stand apart in the source; their conditions may differ. Where two headings read alike, the source gives them in different places. Where a SMILES comes first, the peptide text is derived from it. [ ]: non-standard residue; d: D form. Sar = CNCC(=O)O

Data set [1] in a line: physchem.
The subject of data set [2] is New Zealand white rabbit sclera-choroid-RPE (SCRPE). The data set can be described thus: In vitro transport across rabbit sclera-choroid-RPE (Ussing chamber). Format: in vitro ADME. Conditions: for cumulative % transport / permeability compared with GFX (in words): rabbit SCRPE. Here is the method:
(§1) In vitro transport of […], and GFX-LYS were carried out across the New Zealand white rabbit cornea and sclera-choroid-[…]). Rabbit eyes were obtained within 24 hr of harvesting from Pel-Freez Biologicals (Rogers, Ark.) and shipped overnight in Hank's balanced salt solution on wet ice. Eyes were used immediately upon arrival. Eyes were washed with assay buffer and cleaned from the muscle and unwanted tissues. […] The small part of the sclera left with cornea helps in mounting the cornea on Ussing chambers. For isolation of the SCRPE, anterior and posterior parts were separated by a circumferential cut at the limbus. […] After separation of the retina, the eye cup was flattened with small cuts around the globe. […] A circulating water bath was used to maintain the temperature at 37° C. during the transport study. The pH of the assay buffer was maintained at 7.4 using 95% air-5% CO2 aeration which also helps in stirring of bathing solutions. Samples were collected (200 μL) from the receiver side every 30 minute for 3 hr and the lost volume was replaced with fresh assay buffer pre-equilibrated at 37° C. GFX levels were analyzed using an LC-MS/MS assay. […] GFX concentrations in the transport study and ocular tissue samples were analyzed using a validated LC-MS/MS method. […] Chromatographic separation of GFX and the internal standard moxifloxacin was performed on Obelisc C18 column (2.1×10 mm, 3 μm). Elution of analytes was performed using linear gradient elution with mobile phase consisting of 5 mM ammonium formate (pH 3.5) and acetonitrile (pH 3.5) with a flow rate of 300 μl/min and total run time of 6 min.

Data set [3] has as its system New Zealand white rabbit cornea. Kind of data set: In vitro transport across rabbit cornea (Ussing chamber). Format: in vitro ADME. Here is the method: as §1
Data set [4] relates to conjunctiva. Kind of data set: In vitro transport of GFX prodrugs across conjunctiva. Format: in vitro ADME, Rabbit.
For data set [5], the system named is calf cornea. Kind of data set: In vitro transport of substrate cassette across normoxic and hypoxic calf cornea. The source says: (§2) Animals used in this study were those that were sacrificed as part of other experiments approved by the Institutional Animal Care Committee of the Colorado State University (Fort Collins) and University of Colorado Anschutz Medical campus. Hypoxic and normoxic calf eyes were obtained from the Department of Physiology, School of Veterinary Medicine, Colorado State University (Fort Collins, Colo.). Briefly, 1 day old male Holstein calves (n=4) were kept in hypobaric hypoxic chambers (PB=445 mm Hg) for 2 weeks. For control experiment, age matched calves (n=4) were kept at ambient altitude (PB=650 mm Hg) and normoxia for two weeks. Hypoxic and normoxic rat eyes were obtained from the Department of Medicine, University of Colorado Anschutz Medical campus (Aurora, Colo.). Sprague Dawley rats (n=4) were maintained in hypobaric hypoxic chambers (PB=380 mm Hg) for 6 weeks and age matched controls were kept at ambient pressure and normoxia.
(§3) In vitro transport studies across hypoxic and control calf cornea and sclera-choroid-RPE (SCRPE) were carried using cassette dosing approach. A cassette of drug transporter substrates, Gly-Sar (PEPT), valacylovir (ATB^0+), MPP^+ (OCT), and phenylacetic acid (MCT) at a concentration of 100 μM each in assay buffer was prepared. Briefly, the calf eyes were harvested immediately after euthanasia and transferred to the laboratory on ice. Upon arrival in the lab, the eyes were washed with assay buffer and cleaned from muscle and unwanted tissues. Anterior and posterior parts were separated by circumferential cut at the limbus. Vitreous was removed and the neural retina was separated from the choroid-RPE by filling the eye cup with assay buffer. The retina afloat in assay buffer was isolated and the eye cup was divided into two pieces (˜1.5×1.5 cm) of sclera-choroid-RPE. Isolated tissues were mounted on modified Ussing chambers (Navicyte, Sparks, Nev.) such that the episcleral side of SCRPE or epithelial side of cornea was facing the donor chamber and retinal side or endothelial side of the cornea was facing the receiver chamber. The chambers were filled with 1.5 ml of assay buffer at 37° C. with (donor side) or without (receiver side) the cocktail of drug transporter substrates. For the study of effect of transporter inhibitors, cocktail mixture (500 μM) of transporter inhibitors was added on both donor and acceptor sides.
(§4) During the transport study, the bathing fluids were maintained at 37° C. using circulating warm water. The pH of the fluids was maintained at pH 7.4 using 95% air-5% CO2 aeration. Samples were collected (200 μL) from receiver side every hour for 6 hours and the removed volume was replaced with fresh assay buffer pre-equilibrated to 37° C. Drug levels were analyzed using a LC-MS/MS assay. Permeation data were corrected for dilution of the receiver concentrations with sample volume replenishment.
(§5) Analyte concentrations in transport study samples were measured using LC-MS/MS method after 5-fold dilution with acetonitrile to reduce the salt concentrations. A cassette analysis method was developed for simultaneous analysis of Gly-Sar, valacylovir, and MPP Phenyl acetic acid was analyzed separately with a negative ionization method and a normal phase separation method. An API-3000 triple quadrupole mass spectrometry (Applied Biosystems, Foster City, Calif., USA) coupled with a PerkinElmer series-200 liquid chromatography (Perkin Elmer, Waltham, Mass., USA) system was used for analysis. Gly-Sar, valacylovir and MPP were separated on Supelco C-5 column (2.1×10 mm, 3 μm) using water containing 0.1% formic acid (A) and acetonitrile:methanol (50:50 v/v) containing 0.1% formic acid (B) as mobile phase. A linear gradient elution at a flow rate of 0.3 ml/min with a total run time of 9 min was employed. Phenyl acetic acid was separated in normal phase separation mode on Obelisc-N silica column (2.1×10 mm, 3 μM) using 5 mM ammonium formate at pH 3.5 (A) and acetonitrile (B) as mobile phase.

In data set [6] the test system is calf sclera-choroid-RPE (SCRPE). Kind of data set: In vitro transport of substrate cassette across normoxic and hypoxic calf SCRPE.
Description: as §2, §3, §4, §5

The subject of data set [7] is human sclera-choroid-RPE (SCRPE). The data set can be described thus: In vitro transport of transporter substrate cassette across human sclera-choroid-RPE. Here is the method:
In vitro transport studies across human cornea and sclera-choroid-RPE (SCRPE) were carried out according to previously published method using the cassette dosing approach. Briefly, cassette of drug transporter substrate including Gly-Sar (PEPT), L-tryptophan (ATB^0+), MPP^+ (OCT), and phenyl acetic acid (MCT) at concentration of 100 μM in assay buffer was prepared. Briefly, the human eyes were washed with assay buffer and cleaned from muscle and conjunctiva tissues, and anterior and posterior parts were separated by giving circumferential cut behind the limbus. Small sclera part was left with cornea, which helps in mounting of cornea on Ussing chambers. Neural retina was separated from the choroid-RPE by filling the eye cup with assay buffer, and floating retina was collected. After separation of retina, eye cup was divided into two rectangular pieces (˜1.5×1.5 cm) of sclera-choroid-RPE. Isolated tissues were mounted on modified Ussing chambers (Navicyte, Sparks, Nev.) such that the episcleral side of SCRPE or epithelial side of cornea was facing the donor chamber and retinal side or endothelial side of cornea is facing the receiver chamber. To study the effect of directionality on transport, one set of Ussing chambers mounted so that sclera side facing the donor side and another set was mounted so that choroid-RPE facing the donor side. The effect of directionality of transport across cornea was not evaluated. The chambers were filled with 1.5 ml of assay buffer with (donor side) or without (receiver side) the cocktail of drug transporter substrates. For study of effect of transporter inhibitors, cocktail mixture (500 μM) of transporter inhibitor was added on both donor and acceptor side.
During the transport study, the bathing fluids were maintained at 37° C. using a circulating warm water and pH 7.4 using 95% air-5% CO2 aeration. Samples were collected (200 μL) form receiver side every hour for 6 hr and the lost volume was compensated with fresh assay buffer pre-equilibrated at 37° C. The drug levels were analyzed using a LC-MS/MS assay. Permeation data were corrected for dilution of the receiver solution with sample volume replenishment.
Analytes concentrations in transport study samples were analyzed using LC-MS/MS method after 5-fold dilution with acetonitrile to reduce the salt concentrations. Cassette analysis method was developed for simultaneous analysis of Gly-Sar, L-tryptophan and MPP^+. Phenyl acetic acid was analyzed separately in negative ionization method and normal phase separation method. An API-3000 triple quadrupole mass spectrometry (Applied Biosystems, Foster City, Calif., USA) coupled with a PerkinElmer series-200 liquid chromatography (Perkin Elmer, Walthm, Mass., USA) system was used for analysis. Gly-Sar, L-tryptophan and MPP^+ were separated on Supelco C-5 column (2.1×10 mm, 3 μm) using water containing 0.1% formic acid (A) and acetonitrile:methanol (50:50 v/v) containing 0.1% formic acid (B) as mobile phase and a linear gradient elution at a flow rate of 0.3 ml/min with total run time of 9 min. Phenyl acetic acid was separated in normal phase separation mode using Obelisc-N silica column (2.1×10 mm, 3 μM) using 5 mM ammonium formate, pH 3.5 (A) and acetonitrile (B) as mobile phase in linear gradient mode at flow rate of 0.3 ml with total run time of 6 min. Gly-Sar, L-tryptophan, and MPP^+ were analyzed in positive ionization mode with following multiple reaction monitoring (MRM) transitions: 147→90 (Gly-Sar); 205→188 (L-tryptophan); 170→128 (MPP^+). Phenyl acetic acid was analyzed in negative ionization mode with following multiple reaction monitoring (MRM) transitions: 135→91 (Phenyl acetic acid).

One may read the solubility as the concentration that dissolves in the medium under given conditions. A low value points to little dissolved substance. Regarding `Cc1ccc(-c2cc(C(F)(F)F)nn2-c2ccc(S(=O)(=O)NC(=O)C(N)CCCNC(=N)N)cc2)cc1` (stereo not shown) [CXB-ARG], the solubility in data set [1] (water) and in data set [1] (water for injection) was 35 µg/mL (≈ 65.1 µM) throughout.

Molecule `Cc1ccc(-c2cc(C(F)(F)F)nn2-c2ccc(S(=O)(=O)NC(=O)C(N)CC(C)C)cc2)cc1` (stereo not shown) [CXB-LEU] came in with a solubility in data set [1] (water for injection) of 16 µg/mL (≈ 32.4 µM).

On to `Cc1ccc(-c2cc(C(F)(F)F)nn2-c2ccc(S(=O)(=O)NC(=O)C(N)CCCCN)cc2)cc1` (stereo not shown) [CXB-LYS, 2,6-diamino-N-(4-(5-p-tolyl-3-(trifluoromethyl)-1H-pyrazol-1-yl)phenylsulfonyl)hexanamide], for which the solubility in data set [1] (water) and in data set [1] (water for injection) was 50 µg/mL (≈ 98.1 µM) throughout.

On to `Cc1ccc(-c2cc(C(F)(F)F)nn2-c2ccc(S(=O)(=O)NC(=O)CCCC(=O)O)cc2)cc1` [CXB-MCT, 5-oxo-5-(4-(5-(p-tolyl)-3-(trifluoromethyl)-1H-pyrazol-1-yl)phenylsulfonamido)pentanoic acid], for which the concentration in solution in data set [1] (water for injection) (solubility) was 620 µg/mL (≈ 1250 µM).

As for `Cc1ccc(-c2cc(C(F)(F)F)nn2-c2ccc(S(=O)(=O)NC(=O)CCCN(C)C)cc2)cc1` [CXB-OCT, 4-(dimethylamino)-N-((4-(5-(p-tolyl)-3-(trifluoromethyl)-1H-pyrazol-1-yl)phenyl)sulfonyl)butanamide], in data set [1] (water for injection), the solubility stood at 3220 µg/mL (≈ 6510 µM).

`COc1c(N2CCN(C(=O)C(N)CC(C)C)C(C)C2)c(F)cc2c(=O)c(C(=O)O)cn(C3CC3)c12` (stereo not shown) [GFX-LEU, 7-(4-(2-amino-4-methylpentanoyl)-3-methylpiperazin-1-yl)-1-cyclopropyl-6-fluoro-8-methoxy-4-oxo-1,4-dihydroquinoline-3-carboxylic acid] displayed a solubility in data set [1] (water for injection) of 2160 µg/mL (≈ 4420 µM).

For `COc1c(N2CCN(C(=O)C(N)CCCCN)C(C)C2)c(F)cc2c(=O)c(C(=O)O)cn(C3CC3)c12` (stereo not shown) [GFX-LYS, 1-cyclopropyl-7-(4-(2,6-diaminohexanoyl)-3-methylpiperazin-1-yl)-6-fluoro-8-methoxy-4-oxo-1,4-dihydroquinoline-3-carboxylic acid], the “cumulative % transport / permeability compared with GFX (in words)” value in data set [2] and in data set [3] was “not significantly different from GFX” in each case. The solubility in data set [1] (water) and in data set [1] (water for injection) was 48000 µg/mL (≈ 95300 µM) in each case.

For the molecule `COc1c(N2CCNC(C)C2)c(F)cc2c(=O)c(C(=O)NCCCC(=O)O)cn(C3CC3)c12` (stereo not shown) [GFX-MCT, 4-(1-cyclopropyl-6-fluoro-8-methoxy-7-(3-methylpiperazin-1-yl)-4-oxo-1,4-dihydroquinoline-3-carboxamido)butanoic acid], the results for the “transport in presence of nicotinic acid (competitive inhibitor of MCT)” value in data set [2] (SCRPE) and in data set [4] were “not across SCRPE” and “significantly inhibited; also recorded: only inhibited by nicotinic acid across conjunctiva”, respectively. Moreover, the “cumulative % transport / permeability compared with GFX (in words)” value in data set [2] and in data set [3] was “significantly (p<0.01) higher than GFX” throughout. Besides, the “cumulative % transport compared with GFX (in words)” value in data set [4] is “significantly (p<0.01) higher than GFX”. The concentration in solution in data set [1] (water for injection) (solubility) was 3010 µg/mL (≈ 6540 µM).

As to `CN(CC(=O)O)C(=O)CN` [Gly-Sar] (H-Gly-[Sar]-OH), the “apparent permeability (Papp) across hypoxic vs normoxic tissue (in words)” value in data set [5] was “significantly higher across normoxic cornea than hypoxic cornea”; in data set [6], “significantly higher across normoxic SCRPE than hypoxic SCRPE”. The “sclera to retina transport higher than retina to sclera transport” value in data set [7] is 1.6-2.0 fold.

On to `N[C@@H](Cc1c[nH]c2ccccc12)C(=O)O` [L-tryptophan], for which, in data set [7] (human, 6 h, 100 μM, pH 7.4), the “sclera to retina transport higher than retina to sclera transport” value is 1.6-2.0 fold.
